Reference: patent publication US20250136619A1, “HETEROBIFUNCTIONAL COMPOUNDS AND THEIR USE IN TREATING DISEASE” (HALDA THERAPEUTICS OPCO, INC., priority 2021, published 2025)
Like-named read-outs stand apart in the source and are kept apart here.

How the values were obtained:
HEK293 cells = experiment: Cellular growth inhibition assay (CellTiter-Glo), HEK293 cells; format: cell-based; details: HEK293 cells, three days of compound treatment, CellTiter-Glo 2.0, read-out: CTG HEK293 GI50
Summary of the method: (§1)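 HeLa or HEK293 cells in DMEM with 10% FBS exposed to titrated compound for three days at 37 °C, 5% CO2, 24 h after seeding. Viability by CellTiter-Glo 2.0 luminescence, normalized to DMSO Day 0 and Day 3 readings; four-parameter fit gives GI50.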

HeLa cells = experiment: Cellular growth inhibition assay (CellTiter-Glo), HeLa cells; format: cell-based; details: HeLa cells, three days of compound treatment, CellTiter-Glo 2.0, read-out: CTG HELA GI50
Summary of the method: as §1

CDK9 = CDK9 (Homo sapiens (Human), UniProt P50750); experiment: KdELECT assay for binding affinity to CDK9
Sequence of CDK9 (P50750 whole entry): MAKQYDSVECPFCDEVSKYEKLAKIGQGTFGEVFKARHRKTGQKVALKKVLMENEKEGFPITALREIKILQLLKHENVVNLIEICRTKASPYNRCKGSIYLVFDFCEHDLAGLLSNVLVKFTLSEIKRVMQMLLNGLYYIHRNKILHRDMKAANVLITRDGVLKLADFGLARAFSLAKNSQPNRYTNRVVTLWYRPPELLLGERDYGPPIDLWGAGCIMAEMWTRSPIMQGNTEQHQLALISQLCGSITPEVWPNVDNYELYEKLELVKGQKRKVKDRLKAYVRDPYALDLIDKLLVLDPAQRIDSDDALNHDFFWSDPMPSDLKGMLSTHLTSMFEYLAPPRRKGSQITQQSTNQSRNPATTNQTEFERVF
Protocol: (§2) Compounds were tested using a KdELECT. Kinase-tagged T7 phage strains were prepared in an E. coli host derived from the BL21 strain. E. coli were grown to log-phase and infected with T7 phage and incubated with shaking at 32° C. until lysis. The lysates were centrifuged and filtered to remove cell debris. The remaining kinases were produced in HEK-293 cells and subsequently tagged with DNA for qPCR detection. Streptavidin-coated magnetic beads were treated with biotinylated small molecule ligands for 30 minutes at room temperature to generate affinity resins for kinase assays. The liganded beads were blocked with excess biotin and washed with blocking buffer (SeaBlock (Pierce), 1% BSA, 0.05% Tween 20, 1 mM DTT) to remove unbound ligand and to reduce non-specific binding. Binding reactions were assembled by combining kinases, liganded affinity beads, and test compounds in 1×binding buffer (20% SeaBlock, 0.17×PBS, 0.05% Tween 20, 6 mM DTT). Test compounds were prepared as 111X stocks in 100% DMSO. Kd values were determined using an 11-point 3-fold compound dilution series with three DMSO control points. All compounds for Kd measurements are distributed by acoustic transfer (non-contact dispensing) in 100% DMSO. The compounds were then diluted directly into the assays such that the final concentration of DMSO was 0.9%. All reactions performed in polypropylene 384-well plate. Each was a final volume of 0.02 mL. The assay plates were incubated at room temperature with shaking for 1 hour and the affinity beads were washed with wash buffer (1×PBS, 0.05% Tween 20). The beads were then re-suspended in elution buffer (1×PBS, 0.05% Tween 20, 0.5 μM nonbiotinylated affinity ligand) and incubated at room temperature with shaking for 30 minutes. The kinase concentration in the eluates was measured by qPCR.

BTK = BTK (Homo sapiens (Human), UniProt Q06187); experiment: KdELECT assay for binding affinity to BTK
Sequence of BTK (Q06187 whole entry): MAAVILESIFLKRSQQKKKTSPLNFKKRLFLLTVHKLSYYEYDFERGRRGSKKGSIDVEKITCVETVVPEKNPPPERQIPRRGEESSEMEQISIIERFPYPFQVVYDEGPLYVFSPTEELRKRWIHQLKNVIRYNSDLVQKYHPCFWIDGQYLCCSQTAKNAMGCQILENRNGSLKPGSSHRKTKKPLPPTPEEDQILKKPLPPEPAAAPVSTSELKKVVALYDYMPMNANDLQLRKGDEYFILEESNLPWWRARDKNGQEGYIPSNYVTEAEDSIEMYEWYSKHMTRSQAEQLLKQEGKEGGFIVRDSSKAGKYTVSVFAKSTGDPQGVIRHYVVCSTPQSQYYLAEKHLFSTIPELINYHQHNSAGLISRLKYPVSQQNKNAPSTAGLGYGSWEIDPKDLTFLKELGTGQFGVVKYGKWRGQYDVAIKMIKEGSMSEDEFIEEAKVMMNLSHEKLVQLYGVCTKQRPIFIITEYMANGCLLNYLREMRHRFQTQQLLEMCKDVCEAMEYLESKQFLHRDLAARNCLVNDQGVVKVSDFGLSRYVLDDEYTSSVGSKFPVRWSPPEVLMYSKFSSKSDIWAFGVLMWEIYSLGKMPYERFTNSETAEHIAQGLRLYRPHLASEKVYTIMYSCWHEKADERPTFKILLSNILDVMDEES
Protocol: as §2, with “KdELECT assay.” for “KdELECT.”, “1× binding” for “1×binding”

**Q.** For `CCc1cnn2c(NCc3ccc(OCCOCCOCCOCCOCCOC/C=C/C(=O)N4CCC[C@@H](n5nc(-c6ccc(Oc7ccccc7)cc6)c6c(N)ncnc65)C4)nc3)cc(N3CCCC[C@H]3CCO)nc12` [Compound I-42], which GI50 (HEK293 cells; Homo sapiens, 72 h) is on record?
**A.** 500 to 1500 nM

**Q.** And the GI50 (HeLa cells; Homo sapiens, 72 h)?
**A.** < 500 nM

**Q.** What about the Kd (CDK9) of the same compound?
**A.** 50 to 500 nM

**Q.** What about the Kd (BTK) of the same compound?
**A.** < 50 nM

**Q.** With `CN(C/C=C/C(=O)N1CCC[C@@H](n2nc(-c3ccc(Oc4ccccc4)cc3)c3c(N)ncnc32)C1)CCOCCOCCOCCOCCNS(=O)(=O)c1ccc(Nc2ncc(Br)c(Nc3cccc(F)c3C(N)=O)n2)cc1` [Compound I-64, 2-[[2-[4-[2-[2-[2-[2-[2-[[(E)-4-[(3R)-3-[4-amino-3-(4-phenoxyphenyl)pyrazolo[3,4-d]pyrimidin-1-yl]-1-piperidyl]-4-oxo-but-2-enyl]-methyl-amino]ethoxy]ethoxy]ethoxy]ethoxy]ethylsulfamoyl]anilino]-5-bromo-pyrimidin-4-yl]amino]-6-fluoro-benzamide] as the compound, how does the GI50 (HEK293 cells; Homo sapiens, 72 h) read?
**A.** > 5000 nM

**Q.** What about the GI50 (HeLa cells; Homo sapiens, 72 h) of the same compound?
**A.** 1500 to 5000 nM

**Q.** And the Kd (CDK9)?
**A.** 500 to 2500 nM

**Q.** And the Kd (BTK)?
**A.** < 50 nM

**Q.** Which results are given for `NC(=O)c1c(F)cccc1Nc1nc(Nc2ccc(S(=O)(=O)NCCOCCOCCOC3CCN(C/C=C/C(=O)N4CCC[C@@H](n5nc(-c6ccc(Oc7ccccc7)cc6)c6c(N)ncnc65)C4)CC3)cc2)ncc1Br` [Compound I-68, 2-[[2-[4-[2-[2-[2-[[1-[(E)-4-[(3R)-3-[4-amino-3-(4-phenoxyphenyl)pyrazolo[3,4-d]pyrimidin-1-yl]-1-piperidyl]-4-oxo-but-2-enyl]-4-piperidyl]oxy]ethoxy]ethoxy]ethylsulfamoyl]anilino]-5-bromo-pyrimidin-4-yl]amino]-6-fluoro-benzamide]?
**A.** Kd (CDK9): 500 to 2500 nM; Kd (BTK): < 50 nM

**Q.** What does the source list for `CCc1cnn2c(NCc3ccc(OCCCN4CCN(CCCN(C)C/C=C/C(=O)N5CCC[C@@H](n6nc(-c7ccc(Oc8ccccc8)cc7)c7c(N)ncnc76)C5)CC4)nc3)cc(N3CCCC[C@H]3CCO)nc12` [Compound I-69]?
**A.** GI50 (HEK293 cells): < 500 nM; GI50 (HeLa cells): < 500 nM; Kd (CDK9): < 50 nM; Kd (BTK): < 50 nM

**Q.** How did the GI50 (HEK293 cells; Homo sapiens, 72 h) turn out when `CCc1cnn2c(NCc3ccc(OCCOCCOCCOC4CCN(C/C=C/C(=O)N5CCC[C@@H](n6nc(-c7ccc(Oc8ccccc8)cc7)c7c(N)ncnc76)C5)CC4)nc3)cc(N3CCCC[C@H]3CCO)nc12` [Compound I-70, (E)-1-((R)-3-(4-amino-3-(4-phenoxyphenyl)-1H-pyrazolo[3,4-d]pyrimidin-1-yl)piperidin-1-yl)-4-(4-(2-(2-(2-((5-(((3-ethyl-5-((S)-2-(2-hydroxyethyl)piperidin-1-yl)pyrazolo[1,5-a]pyrimidin-7-yl)amino)methyl)pyridin-2-yl)oxy)ethoxy)ethoxy)ethoxy)piperidin-1-yl) but-2-en-1-one] was run?
**A.** 500 to 1500 nM

**Q.** What about the GI50 (HeLa cells; Homo sapiens, 72 h) of the same compound?
**A.** < 500 nM

**Q.** And the Kd (CDK9)?
**A.** 50 to 500 nM

**Q.** What about the Kd (BTK) of the same compound?
**A.** < 50 nM

**Q.** For `CCc1cnn2c(NCc3ccc(OCCOCCOCCOCCOCCN(C)C/C=C/C(=O)N(C)CCOc4c(N)ncnc4-c4cc(F)cc(NC(=O)c5ccc(C6CC6)cc5F)c4C)nc3)cc(N3CCCC[C@H]3CCO)nc12` [Compound I-77], which Kd (CDK9) is on record?
**A.** 50 to 500 nM

**Q.** And the Kd (BTK)?
**A.** 500 to 2500 nM

**Q.** Which GI50 (HEK293 cells; Homo sapiens, 72 h) does the source give for `Cc1c(NC(=O)c2ccc(C3CC3)cc2F)cc(F)cc1-c1ncnc(N)c1OCCN(C)C(=O)/C=C/CN(C)CCCN1CCN(CCCNS(=O)(=O)c2ccc(Nc3ncc(Br)c(Nc4cccc(F)c4C(N)=O)n3)cc2)CC1` [Compound I-79, 2-[[2-[4-[3-[4-[3-[[(E)-4-[2-[4-amino-6-[3-[(4-cyclopropyl-2-fluoro-benzoyl)amino]-5-fluoro-2-methyl-phenyl]pyrimidin-5-yl]oxyethyl-methyl-amino]-4-oxo-but-2-enyl]-methyl-amino]propyl]piperazin-1-yl]propylsulfamoyl]anilino]-5-bromo-pyrimidin-4-yl]amino]-6-fluoro-benzamide] here?
**A.** > 5000 nM

**Q.** And the GI50 (HeLa cells; Homo sapiens, 72 h)?
**A.** 1500 to 5000 nM

**Q.** What about the Kd (CDK9) of the same compound?
**A.** 50 to 500 nM

**Q.** And the Kd (BTK)?
**A.** < 50 nM

**Q.** What does the source list for `Cc1c(NC(=O)c2ccc(C3CC3)cc2F)cc(F)cc1-c1ncnc(N)c1OCCN(C)C(=O)/C=C/CN1CCC(OCCOCCOCCNS(=O)(=O)c2ccc(Nc3ncc(Br)c(Nc4cccc(F)c4C(N)=O)n3)cc2)CC1` [Compound I-80, 2-[[2-[4-[2-[2-[2-[[1-[(E)-4-[2-[4-amino-6-[3-[(4-cyclopropyl-2-fluoro-benzoyl)amino]-5-fluoro-2-methyl-phenyl]pyrimidin-5-yl]oxyethyl-methyl-amino]-4-oxo-but-2-enyl]-4-piperidyl]oxy]ethoxy]ethoxy]ethylsulfamoyl]anilino]-5-bromo-pyrimidin-4-yl]amino]-6-fluoro-benzamide]?
**A.** Kd (CDK9): 50 to 500 nM; Kd (BTK): < 50 nM

**Q.** Which GI50 (HEK293 cells) does the source give for `CCc1cnn2c(NCc3ccc(OCCCN4CCN(CCCN(C)C/C=C/C(=O)N(C)CCOc5c(N)ncnc5-c5cc(F)cc(NC(=O)c6ccc(C7CC7)cc6F)c5C)CC4)nc3)cc(N3CCCC[C@H]3CCO)nc12` [Compound I-81, N-[3-[6-amino-5-[2-[[(E)-4-[3-[4-[3-[5-[[[3-ethyl-5-[(2S)-2-(2-hydroxyethyl)-1-piperidyl]pyrazolo[1,5-a]pyrimidin-7-yl]aminomethyl]-2-pyridyl]oxy]propyl]piperazin-1-yl]propyl-methyl-amino]but-2-enoyl]-methyl-amino]ethoxy]pyrimidin-4-yl]-5-fluoro-2-methyl-phenyl]-4-cyclopropyl-2-fluoro-benzamide] here?
**A.** < 500 nM

**Q.** What about the GI50 (HeLa cells) of the same compound?
**A.** < 500 nM

**Q.** What about the Kd (CDK9) of the same compound?
**A.** < 50 nM

**Q.** And the Kd (BTK)?
**A.** < 50 nM

**Q.** For `CCc1cnn2c(NCc3ccc(OCCOCCOCCOC4CCN(C/C=C/C(=O)N(C)CCOc5c(N)ncnc5-c5cc(F)cc(NC(=O)c6ccc(C7CC7)cc6F)c5C)CC4)nc3)cc(N3CCCC[C@H]3CCO)nc12` [Compound I-82, (S,E)-N-(3-(6-amino-5-(2-(4-(4-(2-(2-(2-((5-(((3-ethyl-5-(2-(2-hydroxyethyl)piperidin-1-yl)pyrazolo[1,5-a]pyrimidin-7-yl)amino)methyl)pyridin-2-yl)oxy)ethoxy)ethoxy)ethoxy)piperidin-1-yl)-N-methylbut-2-enamido)ethoxy)pyrimidin-4-yl)-5-fluoro-2-methylphenyl)-4-cyclopropyl-2-fluorobenzamide], which GI50 (HEK293 cells; Homo sapiens, 72 h) is on record?
**A.** 1500 to 5000 nM

**Q.** And the GI50 (HeLa cells; Homo sapiens, 72 h)?
**A.** 500 to 1500 nM

**Q.** What about the Kd (CDK9) of the same compound?
**A.** < 50 nM

**Q.** And the Kd (BTK)?
**A.** 50 to 500 nM
